Measured values published in patent US20260193647A1, “MIRNA-BASED CANCER THERAPY WITH A TUMOR-NAVIGATING PEPTIDE” (The Board of Trustees of the Universities of Illinois, priority 2022, published 2026).

What was measured:
SJ-GBM2 cells = experiment: Annexin V/PI flow cytometric apoptosis assay, SJ-GBM2; format: cell-based, human; conditions: 10 nM, 24 h
Experimental: (§1) Cells were seeded into 10-cm dishes and cultured overnight. Then, the cells were treated with 10 nM antisense miR-20a alone, p28 alone or AmiR20-p28 for 24 hr. Cells were washed with 1×PBS, detached with TrypleE (Invitrogen). and collected by centrifugation. Cells were washed and resuspended with 1× Annexin binding buffer (Life Technologies, catalog #V13242), and the cell density was maintained at 10^6 cells/ml. Subsequently, 5 μl of Annexin-V was added to 100 μl of the cell suspension, and the mixture was incubated for 15 min at room temperature. The cells were washed and incubated with 5 μl of PI for an additional 15 min on ice, washed and resuspended in 200 μl of buffer. Cells without treatment were used as controls. After washing, cells were subjected to flow cytometry (Gallios flow cytometer) and analyzed with Kaluza software to give the proportions of dead (top left quadrant), late apoptotic (top right quadrant), early apoptotic (bottom right quadrant) and viable (bottom left quadrant) cells.

aGBM (LN-229) cells = experiment: Annexin V/PI flow cytometric apoptosis assay, aGBM (LN-229); format: cell-based, human; conditions: 10 nM, 24 h
Experimental: as §1

[1] = tested on: genes associated with the EGFR, p53 and TGF pathways; experiment: qPCR of downstream targets of miR-20a; format: cell-based, human; conditions: 10 nM, 24 hr
[2] = tested on: SJ-GBM2, CHLA-200, LN-229 and astrocytes; experiment: Intracellular entry by qPCR detection of antisense miR-20a; format: cell-based, human; conditions: 1, 10, 100 and 1,000 nM, 24 hr
Description: Micro RNA enriched fraction was extracted using the miRNeasy Mini Kit (Qiagen, Catalog #217004) following the manufacturer's instructions. Stem loop real-time qPCR was used to analyze miRNA expression. We designed miR-20a stem loop RT primers and amplification primers according to a previously described method 79. cDNA was synthesized from extracted RNA using unique stem loop RT primers. The sequence of the stem loop primer for miR-20a was 5′-[…]-3′ (SEQ ID NO:7). Reverse transcriptase reactions contained the following reagents: 10 ng of RNA sample, 60 nM stem-loop RT primer, 1×RT buffer, 0.25 mM dNTP, and 4 U/μl reverse transcriptase. Reactions were performed by incubation at 16° C. for 30 min, 42° C. for 30 min and 85° C. for 5 min. Real-time PCR (7300 Real time PCR Systems, Applied Biosystems, CA) was performed using the specific forward primer for miR-20a (5′-[…]-3′ (SEQ ID NO:8)) and a universal reverse primer (5′-GTGCA GGGTC CGAGGT-3′ (SEQ ID NO:9)). The 20-μl PCR mixture included 1×SYBR Premix (Invitrogen), 2 μl of RT products and each forward and reverse primer at 10 nM. Reactions were performed by incubation in a 96-well plate at 95° C. for 30 sec, followed by 35 cycles of 95° C. for 30 sec and 60° C. for 30 sec. U6 was used as an internal control to normalize the level of target miRNAs. […]

[3] = design: species or system mice; conditions: mouse, in vivo
Experimental: Collected samples were fixed with buffered 3.7% formalin (Anatech) for 24 hr. Formalin was replaced with 70% ethanol following fixation. Samples were paraffin-embedded, and blocks were cut into 4 μm-thick sections and mounted onto slides which were processed for H&E staining. H&E-stained slides were analyzed by a pathologist blinded to the experimental groups.
Alanine transaminase (ALT) activity was measured using ALT assay kits (Sigma, #MAK052) and serum aspartate transaminase (AST) activities was measured using AST assay kits (Sigma, #MAK055) following the manufacturer's instructions. Briefly, serum samples at different dilutions, were reacted with ALT or AST reaction mixture and plated on 96-well plate, followed by reading at A450. The final calculations were done by comparing the sample readings with that of standard curve (pyruvate standards for ALT and glutamate standards for AST).

AmiR20-p28: BBB-permeable tumor-navigating CPP p28 (Cys-p28) covalently linked to 2′ O-methyl antisense miR-20a (5′-maleimide)
increase in apoptotic cells by (SJ-GBM2 cells): 16%
apoptotic cells after treatment (aGBM (LN-229) cells): 6.7%
EGFR expression levels ([1]; LN-229 cells): decreased EGFR expression levels
expression of p53, p21, Bax and E2F ([1]; LN-229 cells): significantly increased
expression levels of EGFR, Ras, MEK1, ERK1, c-Fos, c-Jun, β-catenin, TCF-1 and Lef1 genes ([1]; SJ-GBM2 and CHLA-200 cells): significantly decreased
expressions of p53, p21, Bax, and E2F ([1]; SJ-GBM2 and CHLA-200 cells): robust increase
gene expression levels ([1]; normal human astrocytes): no significant effect on gene expression levels
penetration into pGBM and aGBM cells (qPCR of antisense miR-20a) [2]: preferential and dose-dependent penetration
histology of heart, lung, liver, spleen, and kidney [3]: no AmiR20-p28-related differences in histology
adverse effects (hepatotoxicity assay, hemolysis assay, histological examination) ([3]; iv, 1 mg/kg): without apparent adverse effects
